Results reported in ChEMBL document CHEMBL1141927, “Quorum sensing in Vibrio harveyi: probing the specificity of the LuxP binding site” (Bioorg Med Chem Lett, 2005).

Experiment: Effective concentration to induce a quorum signal in Vibrio harveyi(by binding Lux P protein)
Format: functional

SMILES | EC50 [µM]
CC(=O)C(=O)CCO | 27
CC(=O)C(=O)[C@H](O)CO | 84
O=C(CO)[C@@H](O)[C@H](O)CO | 560

Now from value to compound:

EC50 [µM] | SMILES
429 | CC(=O)C(=O)[C@H](O)[C@H](O)CO
0.044 | CC(=O)C(=O)[C@@H](O)CO
108 | O=C(CO)[C@H](O)[C@H](O)CO
737 | O=C1O[C@H]([C@@H](O)CO)C(O)=C1O [ASCORBIC ACID]
